In PMC5228037, “Discovery and Mechanistic Characterization of Selective Inhibitors of H2S-producing Enzyme: 3-Mercaptopyruvate Sulfurtransferase (3MST) Targeting Active-site Cysteine Persulfide” (Scientific Reports, 2017):

Target: T1, persulfurated 3MST (Mus musculus, UniProt Q99J99)
T1 construct: The recombinant full-length wild-type mouse 3MST; made in house; host or cells: E. coli JM109 (DE3)
T1 sequence (Q99J99 1-297): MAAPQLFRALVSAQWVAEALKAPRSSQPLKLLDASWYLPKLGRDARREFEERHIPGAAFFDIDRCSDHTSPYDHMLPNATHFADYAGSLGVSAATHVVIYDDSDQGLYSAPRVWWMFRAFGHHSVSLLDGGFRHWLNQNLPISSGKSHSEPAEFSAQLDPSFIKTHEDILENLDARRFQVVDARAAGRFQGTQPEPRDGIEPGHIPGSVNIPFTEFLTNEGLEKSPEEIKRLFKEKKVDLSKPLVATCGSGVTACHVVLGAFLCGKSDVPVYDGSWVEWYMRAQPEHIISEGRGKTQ
Assay: ITC analysis with persulfurated 3MST
Assay type: binding
Conditions: 25 °C; for ΔH (ITC): persulfurated 3MST; for Kd: persulfurated (3MP-treated) 3MST, pH 9, read-out: Dissociation constant Kd (ITC)
Method: The recombinant full-length wild-type mouse 3MST and mutant m3MST (C65S/C255S/C264S) were expressed as an N-terminal His-tagged protein ([…]-3MST) in E. coli JM109 (DE3). The pET44a(+) vector (Novagen) was used as an expression vector. Cells were grown at 37 °C in LB broth (Miller) or 2 × YT broth containing 0.1 g/L ampicillin to OD600 about 0.5, and then protein expression was induced by adding IPTG (final conc. 0.5 mM (LB), 1 mM (2 × YT)). Cells were cultured overnight at 18–20 °C with shaking and harvested at 4 °C by centrifugation at 9,000 rpm for 5 min. Harvested cells were resuspended in lysis buffer containing 0.1 M HEPES-NaOH pH 8, 0.5 M NaCl, 0% or 10% glycerol, 0.5 mM TCEP, 1 mM PMSF, and 1% EtOH, and disrupted by sonication. Cell lysis solutions were centrifuged at 20,000 rpm for 20 min. […] The proteins were further purified on HisTrap HP (GE Healthcare) by increasing the imidazole concentration in buffer containing 0.02 M HEPES pH 8, 0.15 M NaCl, 10% glycerol, and 0.05 mM TCEP until proteins were eluted. Then the His-tag was removed by GST-fusion HRV 3 C protease digestion. The proteins were further purified by anion exchange chromatography on a HiTrap Q HP (GE Healthcare) by increasing the NaCl concentration in buffer containing 0.02 M HEPES pH 8, 10% glycerol, 0.5 mM TCEP until proteins were eluted, and then by gel filtration chromatography on Superdex 75 prep grade using buffer containing 0.02 M HEPES pH 7.5, 0.3 M NaCl, 0.5 mM TCEP. Wild-type 3MST was used in ITC analysis and mutant 3MST was used for crystallization.
Persulfurated 3MST was prepared as follows: 3MST-3MP solution (5 μM 3MST, 25 μM 3MP, 20 μM TCEP, 0.02 M glycine-NaOH pH9, 0.1 M NaCl) was incubated for 2 hr at room temperature. To prevent buffer mismatch and to remove unreacted 3MP and reaction product (pyruvate), the reaction solution was exchanged to ITC measurement solution (0.02 M glycine-NaOH pH 9, 0.1 M NaCl, 5% DMSO) using an Amicon Ultra (10 K) (Millipore) or Vivaspin (10 K) (Sartorius). Non-persulfurated 3MST solution was also prepared by buffer exchange. Both inhibitors were dissolved in the ITC measurement solution. Inhibitor solution (0.5 mM compound 1 or 0.25 mM compound 3) were titrated into a protein solution (0.05 mM 3MST) at 25 °C using a MicroCal iTC200 (GE Healthcare). The first injection of 0.4 μL was followed by 18 injections of 2 μL with 150 s between each injection. Each experiment was repeated three times (n = 3). For data analysis, the first injection peak was removed. Data analyses and curve fitting to a single-site binding model were performed by Origin7 SR4 software (OriginLab).

| ΔH (ITC) | Kd | SMILES |
| --- | --- | --- |
| -9.37 kcal/mol | 3000 nM | NC(=O)c1ccsc1NC(=O)CSc1nc2ccccc2c(=O)[nH]1 [compound 1] |
| -11.76 kcal/mol | 500 nM | Cc1cc(=O)[nH]c(SCC(=O)c2cccc3ccccc23)n1 [compound 3] |
